pIC50: −log10 of the molar value. Activity calls are given as the source filed them. The rule behind the calls is not given here.
Experiments:
[1] = target: Histone-lysine N-methyltransferase, H3 lysine-79 specific (Homo sapiens) (UniProt Q8TEK3); assay: Inhibition of […] (unknown origin) using [3H]SAM and HeLa oligo nucleosomes as substrates at 100 uM incubated for 1 hr relative to control
[2] = target: Histone-lysine N-methyltransferase EZH2 (Homo sapiens) (UniProt Q15910); assay: Inhibition of EZH2 (unknown origin) using [3H]SAM and chicken core histone as substrates at 100 uM incubated for 1 hr relative to control
[3] = target: T1, MAO-A (amine oxidase [flavin-containing] A) (Homo sapiens, UniProt P21397); assay: Inhibition of human MAO-A using p-tyramine as substrate at 100 uM by fluorimetric analysis relative to control; conditions: human MAO-A enzyme, probe p-tyramine
T1 sequence (P21397 whole entry): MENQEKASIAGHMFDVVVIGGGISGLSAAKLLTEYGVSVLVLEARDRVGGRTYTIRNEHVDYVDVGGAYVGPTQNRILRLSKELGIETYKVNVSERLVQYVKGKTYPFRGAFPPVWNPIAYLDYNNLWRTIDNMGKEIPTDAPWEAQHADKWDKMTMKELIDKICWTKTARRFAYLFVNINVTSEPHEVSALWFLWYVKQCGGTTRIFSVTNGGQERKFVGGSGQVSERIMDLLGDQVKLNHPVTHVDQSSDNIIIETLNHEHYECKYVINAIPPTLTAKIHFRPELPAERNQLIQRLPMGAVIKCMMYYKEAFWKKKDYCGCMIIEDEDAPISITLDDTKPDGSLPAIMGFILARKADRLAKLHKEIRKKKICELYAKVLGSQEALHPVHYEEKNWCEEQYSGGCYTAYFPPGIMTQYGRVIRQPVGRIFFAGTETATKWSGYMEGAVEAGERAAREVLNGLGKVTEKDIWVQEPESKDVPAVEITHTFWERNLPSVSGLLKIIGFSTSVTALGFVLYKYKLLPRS

THP-1 [4] = assay: Antiproliferative activity against human THP-1 cells assessed as inhibition of cell growth incubated for 24 hrs by CellTiter-Glo luminescent cell viability assay; assay type: functional, cell-based; conditions: THP-1, 24 h
THP-1 [5] = assay: Antiproliferative activity against human THP-1 cells assessed as inhibition of cell growth incubated for 72 hrs by CellTiter-Glo luminescent cell viability assay; assay type: functional, cell-based; conditions: THP-1, 72 h
THP-1 [6] = assay: Antiproliferative activity against human THP-1 cells assessed as inhibition of cell growth incubated for 144 hrs by CellTiter-Glo luminescent cell viability assay; assay type: functional, cell-based; conditions: THP-1, 144 h
MV4-11 [7] = assay: Antiproliferative activity against human MV4-11 cells assessed as inhibition of cell growth at 0.2 to […] incubated for 72 hrs by trypan blue staining based analysis; assay type: functional; conditions: dose 0.2-2.5 µM
MV4-11 [8] = assay: Induction of cell cycle arrest in human MV4-11 cells assessed as accumulation of cells at G1 phase at 0.2 to […] incubated for 24 hrs; assay type: functional, cell-based; conditions: dose 0.2-2.5 µM
[9] = Cytotoxicity against HMEC cells assessed as residual cell viability at 1 uM incubated for 72 hrs by MTT assay relative to control; assay type: toxicity, cell-based; conditions: human, read-out: Activity
[10] = Cytotoxicity against HMEC cells assessed as residual cell viability at 0.5 uM incubated for 72 hrs by MTT assay relative to control; assay type: toxicity, cell-based; conditions: human, read-out: Activity
RD [11] = assay: Antiproliferative activity against human RD cells assessed as inhibition of cell growth incubated for 72 hrs; assay type: functional, cell-based
RD [12] = assay: Antiproliferative activity against human RD cells assessed as inhibition of cell growth incubated for 144 hrs; assay type: functional, cell-based
SJRH30 [13] = assay: Antiproliferative activity against human Rh30 cells assessed as inhibition of cell growth incubated for 24 hrs; assay type: functional, cell-based; conditions: SJRH30, 24 h
SJRH30 [14] = assay: Antiproliferative activity against human Rh30 cells assessed as inhibition of cell growth incubated for 144 hrs; assay type: functional, cell-based; conditions: SJRH30, 144 h
[15] = Cytotoxicity against human derived mesenchymal stem cells assessed as residual cell viability at 1.25 uM measured after 72 hrs relative to control; assay type: toxicity, cell-based; conditions: read-out: Activity
[16] = target: Lysine-specific histone demethylase 1A (Homo sapiens) (UniProt O60341); assay: Inhibition of LSD1 in human RD cells assessed as increase in H3K4me2 level at 1 uM incubated for 48 hrs by Western blot analysis; assay type: cell-based
[17] = target: Lysine-specific histone demethylase 1A (Homo sapiens) (UniProt O60341); assay: Inhibition of LSD1 in human Rh30 cells assessed as increase in H3K4me2 level at 1 uM incubated for 48 hrs by Western blot analysis; assay type: cell-based
SJRH30 [18] = assay: Antiproliferative activity against human Rh30 cells assessed as reduction in live cells at 2 uM incubated for 24 hrs by calceinAM/propidium iodide staining based fluorescence microscopy; assay type: functional, cell-based
RD [19] = assay: Induction of apoptosis in human RD cells assessed as increase in caspase 3/7 level at 2 uM incubated for 24 hrs; assay type: functional, cell-based
SJRH30 [20] = assay: Induction of apoptosis in human Rh30 cells assessed as increase in caspase 3/7 level at 2 uM incubated for 24 hrs; assay type: functional, cell-based

Sequence of Histone-lysine N-methyltransferase EZH2 (Homo sapiens) (Q15910 whole entry, looked up): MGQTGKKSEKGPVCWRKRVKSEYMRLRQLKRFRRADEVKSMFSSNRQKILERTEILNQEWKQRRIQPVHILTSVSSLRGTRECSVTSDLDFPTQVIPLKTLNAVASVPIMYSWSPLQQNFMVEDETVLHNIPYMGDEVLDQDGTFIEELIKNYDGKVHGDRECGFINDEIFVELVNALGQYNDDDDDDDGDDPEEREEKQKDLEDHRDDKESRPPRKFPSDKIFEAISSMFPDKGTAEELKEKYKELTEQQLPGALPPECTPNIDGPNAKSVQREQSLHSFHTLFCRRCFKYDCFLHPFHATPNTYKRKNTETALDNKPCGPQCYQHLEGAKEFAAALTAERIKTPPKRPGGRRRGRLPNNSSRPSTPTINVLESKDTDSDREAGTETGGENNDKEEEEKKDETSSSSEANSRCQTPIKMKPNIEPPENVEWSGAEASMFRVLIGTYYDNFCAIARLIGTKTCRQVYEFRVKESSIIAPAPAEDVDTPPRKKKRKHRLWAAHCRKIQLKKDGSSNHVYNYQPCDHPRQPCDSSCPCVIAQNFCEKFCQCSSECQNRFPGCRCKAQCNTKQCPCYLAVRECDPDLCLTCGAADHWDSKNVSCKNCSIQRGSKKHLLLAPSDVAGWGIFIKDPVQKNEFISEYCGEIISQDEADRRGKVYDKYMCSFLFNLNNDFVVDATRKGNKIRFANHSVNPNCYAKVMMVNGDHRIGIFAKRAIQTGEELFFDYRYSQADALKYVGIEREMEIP
Sequence of Histone-lysine N-methyltransferase, H3 lysine-79 specific (Homo sapiens) (Q8TEK3 whole entry, looked up): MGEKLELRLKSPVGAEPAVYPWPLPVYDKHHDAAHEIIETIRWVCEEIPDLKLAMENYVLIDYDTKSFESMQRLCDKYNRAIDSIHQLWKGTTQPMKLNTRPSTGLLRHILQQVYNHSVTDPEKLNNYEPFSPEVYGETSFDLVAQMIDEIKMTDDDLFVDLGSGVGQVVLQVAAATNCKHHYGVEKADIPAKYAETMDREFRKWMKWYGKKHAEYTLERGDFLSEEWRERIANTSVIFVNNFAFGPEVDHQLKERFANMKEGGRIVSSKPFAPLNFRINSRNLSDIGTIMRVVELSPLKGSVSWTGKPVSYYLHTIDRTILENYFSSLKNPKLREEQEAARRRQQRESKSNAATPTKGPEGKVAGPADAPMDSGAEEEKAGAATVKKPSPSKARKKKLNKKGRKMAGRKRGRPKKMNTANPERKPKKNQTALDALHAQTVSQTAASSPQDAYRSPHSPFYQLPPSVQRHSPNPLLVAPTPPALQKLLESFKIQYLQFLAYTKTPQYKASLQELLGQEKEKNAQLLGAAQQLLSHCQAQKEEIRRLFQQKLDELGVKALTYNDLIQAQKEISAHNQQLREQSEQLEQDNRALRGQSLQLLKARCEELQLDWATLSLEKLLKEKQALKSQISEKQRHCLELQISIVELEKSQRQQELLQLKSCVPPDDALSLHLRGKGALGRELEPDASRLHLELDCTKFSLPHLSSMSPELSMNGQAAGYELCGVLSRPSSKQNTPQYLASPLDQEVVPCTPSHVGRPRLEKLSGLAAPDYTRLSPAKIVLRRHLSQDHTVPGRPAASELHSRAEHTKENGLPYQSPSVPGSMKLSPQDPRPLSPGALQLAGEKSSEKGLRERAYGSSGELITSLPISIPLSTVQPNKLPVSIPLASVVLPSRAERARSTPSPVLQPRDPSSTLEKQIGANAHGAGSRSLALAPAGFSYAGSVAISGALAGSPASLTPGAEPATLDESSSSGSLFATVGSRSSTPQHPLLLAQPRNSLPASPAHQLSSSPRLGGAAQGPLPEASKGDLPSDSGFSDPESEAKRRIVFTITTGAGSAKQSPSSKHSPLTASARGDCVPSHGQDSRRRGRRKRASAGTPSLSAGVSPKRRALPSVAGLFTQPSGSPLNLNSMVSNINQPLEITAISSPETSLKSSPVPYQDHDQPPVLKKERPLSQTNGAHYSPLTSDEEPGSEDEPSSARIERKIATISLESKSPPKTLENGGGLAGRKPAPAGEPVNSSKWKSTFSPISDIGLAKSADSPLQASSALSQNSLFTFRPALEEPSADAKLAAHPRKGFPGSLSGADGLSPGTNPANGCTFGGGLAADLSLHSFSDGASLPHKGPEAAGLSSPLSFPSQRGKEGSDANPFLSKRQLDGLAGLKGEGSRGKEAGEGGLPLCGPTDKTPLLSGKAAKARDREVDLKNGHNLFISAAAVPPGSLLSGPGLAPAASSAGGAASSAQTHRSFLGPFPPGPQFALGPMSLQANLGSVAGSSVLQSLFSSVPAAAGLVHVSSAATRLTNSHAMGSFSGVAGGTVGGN

COc1cc2c(NC3CCN(Cc4ccccc4)CC3)nc(NCCCN(C)C)nc2cc1OCc1ccccc1
inhibition [1]: 22.6% | inhibition [2]: 1.8% | inhibition at 100 µM [3]: 0.8% | pIC50 (THP-1 [4]): 6.57 | pIC50 (THP-1 [5]): 6.77 | pIC50 (THP-1 [6]): 6.89 | inhibition (MV4-11 [7]): Active | Activity (MV4-11 [8]): Active | viability at 72 h, 1 µM [9]: 76% | viability at 72 h, 0.5 µM [10]: 93% | pIC50 (RD [11]): 6.07 | pIC50 (RD [12]): 6.14 | pIC50 (SJRH30 [13]): 5.91 | pIC50 (SJRH30 [14]): 6.17 | viability at 72 h, 1.25 µM [15]: 92% | inhibition [16]: Active | inhibition [17]: Active | Activity (SJRH30 [18]): Active | Activity (RD [19]): Active | Activity (SJRH30 [20]): Active

— ChEMBL document CHEMBL5120862, “Novel non-covalent LSD1 inhibitors endowed with anticancer effects in leukemia and solid tumor cellular models” (Eur J Med Chem, 2022)
